According to patent publication US20030194738A1, “Antisense oligonucleotide compositions and methods for the modulation of activating protein 1” (priority 1997, published 2003):
Values joined by “and” are separate entries in the source; they are usually repeats but may differ in a detail not shown here. Equal entries are not always repeated. “Also recorded” adds a separate entry of the source. Strand notation (5' to 3'): a small letter for the sugar, then the base; units joined by * are phosphorothioate-linked, units joined directly phosphodiester-linked; [ ] holds rarer units or linkages, { } end groups; capitals alone tell only the bases. d = 2'-deoxy (DNA)

Legend:
[1] = test system: c-Jun; experiment: Induction of c-Jun by TNF-a, IL-1b or TGF-b in A549 cells; type: cell-based, human; details: for c-Jun induction by IL-1b: inducer IL-1b 10 ng/ml, No Oligo = 100, basal = 9; for c-Jun induction by TGF-b: inducer TGF-b 10 ng/ml, No Oligo = 100, basal = 2; for c-Jun induction by TNF-a: inducer TNF-a 10 ng/ml, No Oligo = 100, basal = 5
Method: Inducing agents other than TPA function to raise AP-1 levels in vivo. In order to assess the ability of oligonucleotides targeted to AP-1 to antagonize the action of three such inducers, A549 cells were treated and evaluated as in Examples 2 et seq. with the exception that TNF-a, IL-1b or TGE-b (each at 10 ng/mi and all from R&D Systems, Minneapolis, Minn.) were used in place of TPA as inducers.

[2] = test system: MMP-9; experiment: MMP-9 expression in TPA-induced normal human epidermal keratinocytes; type: cell-based; details: for MMP-9 (expression): Table 17, NHEK cells harvested 24 hours after TPA treatment for 4 hours, TPA - no oligo = 100, basal = 4
Source text: The matrix metalloproteinases (MMPs) are a family of enzymes which have the ability to degrade components of the extracellular matrix (Birkedal-Hansen, Current Op. Biol., 1995, 7, 728). […] In particular, one member of this family, matrix metalloproteinase-9 (MMP-9), is often found to be expressed only in tumors and other diseased tissues (Himeistein et al., Invasion & Metastasis, 1994, 14, 246). Several studies have shown that regulation of the MMP-9 gene may be controlled by the AP-1 transcription factor (Kerr et al., Science, 1988, 242, 1242; Kerr et al., Cell, 1990, 61, 267; Gum et al., J. Biol. Chem., 1996, 271, 10672; Hua et al., Cancer Res., 1996, 56, 5279). In order to determine whether MMP-9 expression can be influenced by AP-1 modulation, the following experiments were conducted on normal human epidermal keratinocytes (NHEKs). Although NHEKs normally express no detectable MMP-9, MMP-9 can be induced by a number of stimuli, including TPA. ISIS 10582, an oligonucleotide targeted to c-jun, was evaluated for its ability to modulate MMP-9 expression according to the protocols described in Examples 2-3 with the following exceptions: (1) NHEK cells were used instead of A549 cells, (2) the probe used, a PCR product prepared using the published sequence of the MMP-9 gene (Huhtala et al., J. Biol. Chem., 1991, 266:16485; Sato et al., Oncogene, 1993, 8:395), is specific for MMP-9 rather than c-jun, and (3) the cells were harvested 24 hours after TPA treatment for 4 hours.

[3] = test system: c-fos mRNA; experiment: c-fos mRNA expression in TPA-induced A549 cells, Northern blotting; type: cell-based, human; details: for c-fos (mRNA level, specificity experiment): Table 5, TPA - no oligo = 100, basal = 5
Method: (§1) In order to evaluate the activity of potential c-fos and c-jun modulating oligonucleotides, A549 cells were grown in T-75 flasks until 80-90% confluent. (Cell line A549 is available from, inter alia, the American Type Culture Collection, Rockville, Md., as ATCC No. CCL-185.) At this time, the cells were washed twice with 10 mL of media (DMEM), followed by the addition of 5 mL of DMEM containing 20 μg/mL of LIPOFECTIN™ (i.e., DOTMA/DOPE (N-[1-(2,3-dioleyloxy)propyl]-N,N,N-[…] chloride/dioleoylphosphatidyl ethanolamine)). The oligonucleotides were added from a 10 μM stock solution to a final concentration of 400 nM, and the two solutions were mixed by swirling the flasks. After 4 hours at 37° C., the medium was replaced with DMEM containing 10% serum. At this point, 1 μM 12-O-tetradecanoylphorbol 13-acetate (TPA) was added to induce expression of c-fos and c-jun. Cells were extracted in guanidinium one hour later, and the c-fos and c-jun mRNA expression was determined by Northern blotting. Probes for human c-jun and c-fos were PCR products prepared using primers based on the published sequences thereof (respectively, Hattori et al., Proc. Natl. Acad. Sci. U.S.A., 1988, 85:9148, and Van Straaten et al., Proc. Natl. Acad. Sci. U.S.A., 1983, 80:3183).
Finally, it can also be seen from Table 5 that neither active oligonucleotide has any detectable effect on mRNA levels of the other active oligonucleotide's target.
Once oligonucleotides that modulate c-Fos or c-Jun are identified, derivative or modified oligonucleotides having the same sequence thereas are prepared. In order to evaluate the effect of chemical modifications to oligonucleotides to c-fos and c-jun, the modified oligonucleotides described in Tables 8 and 9 were prepared. The effect of the c-fos-targeted oligonucleotides on c-fos RNA levels were evaluated as described in Examples 2-3. […] Other modified oligonucleotides of the invention are evaluated in like fashion. In order to evaluate the effect of PNA antisense analogs, the PNA analogs of the invention are introduced into appropriate cell lines by microinjection according to the method of Hanvey et al. (Science, 1992, 258:1481). Intracellular delivery of PNA analogs is confirmed by the use of a fluorescently tagged PNA antisense analog conjugate such as, e.g., ISIS 14240.

[4] = test system: c-jun mRNA; experiment: c-jun mRNA expression in TPA-induced A549 cells, Northern blotting; type: cell-based, human; details: for effect on c-jun mRNA levels during TPA induction (in words) / c-jun (mRNA level, specificity experiment) / c-jun mRNA LEVELS (% CONTROL): A549 cells; for c-jun (mRNA level, specificity experiment): Table 5, TPA - no oligo = 100, basal = 23; for c-jun mRNA LEVELS (% CONTROL): TPA induction, 1 hour
Method: as §1, with “The oligonucleotides were added from a 10 μM stock solution to a final concentration of 400 nM, and the two solutions were mixed by swirling the flasks.” left out

[5] = test system: c-Fos protein; experiment: c-Fos protein levels in TPA-induced A549 cells, immunoblot; type: cell-based, human; details: TPA (1 uM) for three hours; for c-Fos (protein level): Table 7, TPA - no oligo = 100, basal = 21
Method: The ability of the c-fos active oligonucleotide ISIS 10639 to reduce expression of the c-Fos protein was examined as follows. A549 cells were treated with oligonucleotides as in Examples 2-3, except that induction of c-Fos was effected by treatment of cells with TPA (1 uM) for three hours. At this time, whole cell protein was extracted in SDS (sodium dodecyl sulfate) buffer. Samples of extracts were electrophoresed, transferred to nitrocellulose filters which were immunoblotted using a c-Fos-specific antibody (Santa Cruz AB, Santa Cruz, Calif.).

[6] = test system: c-fos mRNA; experiment: c-fos mRNA expression in TPA-induced A549 cells, Northern blotting; type: cell-based, human; details: TPA induction, 1 hour
[7] = test system: A549 tumors; experiment: Growth of A549 tumor fragments implanted subcutaneously in nude mice; type: in vivo; details: 25 mg/kg daily i.v. for three weeks; for Mean Tumor Weight: nude mice
Method: In order to evaluate the in vivo activity of c-fos oligonucleotides, 25 mg of tumor fragments of A549 tumors were implanted subcutaneously in nude mice (n=6). ISIS 10639 was administered daily, i.v., for three weeks. The oligonucleotide dosage was 25 mg/kg. […] By day 34, saline-treated tumors were 0.56±0.12 g by weight, while tumors treated with ISIS 10639 were 0.31±0.1 g by weight.

[8] = 400 nM oligonucleotide with LIPOFECTIN, control is TPA induction, at 1 hour, in A549 cells
[9] = 400 nM oligonucleotide, TPA-induced A549 cells

Row | Substance | MMP-9 (expression) [2] | c-fos (mRNA level, specificity experiment) ([3]; A549 cells) | effect on c-jun mRNA levels during TPA induction (in words) [4] | c-jun (mRNA level, specificity experiment) [4] | c-Fos (protein level) [5] | effect on c-fos mRNA levels during TPA induction (in words) ([3]; A549 cells) | further results
1 | CAC-CTC-CAC-GCG-CTT-CTG-GC (dC*dA*dC*dC*dT*dC*dC*dA*dC*dG*dC*dG*dC*dT*dT*dC*dT*dG*dG*dC; antisense) [ISIS 11563] | 95 | 99 | – | – | – | – | stimulation / induction of c-Jun by TNF-a or IL-1b (in words) [1]: did not reverse; c-Jun induction by IL-1b [1]: 94; c-Jun induction by TGF-b [1]: 99; c-Jun induction by TNF-a [1]: 98
2 | TCG-GCA-CCT-GAA-GGA-CTT-TC (dT*dC*dG*dG*dC*dA*dC*dC*dT*dG*dA*dA*dG*dG*dA*dC*dT*dT*dT*dC; antisense) [ISIS 11564] | 89 | 99 | no detectable effect | 71 | – | – | –
3 | ACG-TCC-GAT-TCC-GAG-CGC-AA (ACGTCCGATTCCGAGCGCAA; antisense; DNA, all phosphorothioate, methylation of C not given here) [ISIS 11186] | – | 98 | – | 99 | 99 | no detectable effect | –
4 | ATG-TGC-TAG-ATG-CGC-AAA-GT (ATGTGCTAGATGCGCAAAGT; antisense; DNA, all phosphorothioate, methylation of C not given here) [ISIS 11185] | – | 93 | – | 98 | 91 | no detectable effect | –
5 | GCT-GTG-GGC-CTC-AAG-GAC-TT (GCTGTGGGCCTCAAGGACTT; antisense; DNA, all phosphorothioate, methylation of C not given here) [ISIS 11184] | – | 84 | – | 91 | 97 | no detectable effect | –
6 | GAG-AGA-CCG-TCG-GGC-GCT-GA (GAGAGACCGTCGGGGGCTGA; listed as DNA, chemistry not given here) [ISIS 11562] | 99 | 89 | – | – | – | – | –
7 | TCA-GCC-CCC-GAC-GGT-CTC-TC (dT*dC*dA*dG*dC*dC*dC*dC*dC*dG*dA*dC*dG*dG*dT*dC*dT*dC*dT*dC; antisense) [ISIS 10582] | 6 | 91 | dose-dependent; also recorded: potent and specific inhibition | 4 | – | no detectable effect | stimulation / induction of c-Jun by TNF-a or IL-1b (in words) [1]: effectively reduces; c-Jun induction by IL-1b [1]: 15; c-Jun induction by TGF-b [1]: 95; c-Jun induction by TNF-a [1]: 20; c-jun mRNA LEVELS (% CONTROL) ([4]; 50 nM oligonucleotide): 72 % CONTROL; c-jun mRNA LEVELS (% CONTROL) ([4]; 100 nM oligonucleotide): 45.5 % CONTROL; c-jun mRNA LEVELS (% CONTROL) ([4]; 200 nM oligonucleotide): 29.5 % CONTROL; c-jun mRNA % CONTROL [4, 8]: 17 % CONTROL; inhibition of c-jun mRNA expression [4, 9]: 83%; c-jun mRNA LEVELS (% CONTROL) ([4]; 400 nM oligonucleotide): 16 % CONTROL; expression of MMP-9 after induction with TPA (in words) ([2]; NHEK cells): completely inhibit
8 | AAG-TCC-TTG-AGG-CCC-ACA-GC (AAGTCCTTGAGGCCCACAGC; antisense; all phosphorothioate, sugars by position and methylation of C not given here) [ISIS 10639] | – | 9 | no detectable effect | 97 | 19 | dose-dependent; also recorded: potent and specific inhibition | c-Fos protein level (in words) ([5]; A549 cells): basal levels; c-fos mRNA LEVELS (% CONTROL) ([6]; 50 nM oligonucleotide): 64 % CONTROL; c-fos mRNA LEVELS (% CONTROL) ([6]; 100 nM oligonucleotide): 46 % CONTROL; c-fos mRNA LEVELS (% CONTROL) ([6]; 200 nM oligonucleotide): 20.5 % CONTROL; tumor growth rate (in words) ([7]; versus saline): substantial reduction; Mean Tumor Weight ([7]; Day 17): 0.105 g; Mean Tumor Weight ([7]; Day 20): 0.138 g; Mean Tumor Weight ([7]; Day 27): 0.225 g; Mean Tumor Weight ([7]; Day 34, 25 mg/kg): 0.31 ± 0.1 g and 0.310 g; c-fos mRNA % CONTROL [3, 8]: 9 % CONTROL; inhibition of c-fos mRNA expression [3, 9]: 91%; c-fos mRNA LEVELS (% CONTROL) ([3]; 400 nM oligonucleotide, TPA induction, 1 hour, A549 cells): 9 % CONTROL; c-fos (expression, modified oligonucleotides) ([3]; Table 10, TPA - no oligo = 100, basal = 3, A549 cells): 9
